How the values were obtained:
[1] = system: T cell receptor (TCR)-induced phosphorylation of ERK; assay: Phosphorylation of ERK in Jurkat T cells (Western blot); type: cell-based; details: 20 hours pretreatment, anti-CD3/CD28 for 0-20 minutes
Method: The DLBCL cell lines, OCI-Ly1, OCI-Ly3, and OCI-Ly7, were provided by Dr. Mark Minden (University Health Network, Toronto, Ontario, Canada). TMD8 cells were provided by Dr. Louis Staudt (NCI, NIH). OCI-Ly1 and OCI-Ly7 cells were cultured in Iscove's Modified Dulbecco's Medium (IMDM) supplemented with 10% FBS. OCI-Ly3 cells were cultured in IMDM supplemented with 20% FBS. TMD8 and Jurkat T cells were cultured in RPMI1640 medium with 10% FBS. HEK293T cells were cultured in DMEM medium with 10% FBS. All media were supplemented with 100 U/ml penicillin streptomycin. Stimulation of Jurkat cells was conducted by adding 5 ng/ml of phorbol 12-myristatel3 acetate (PMA)(Sigma-Aldrich) and 1μM ionomycin (Calbiochem), or by adding 5-10 μL/mL of ImmunoCult Human CD3/CD28 ([…] Technologies).

[2] = system: IL-2 secretion; assay: IL-2 secretion (ELISA); type: cell-based, human; details: dose-response
Method: (§1) Expression of cytokines from cell culture supernatants was measured 24h after treatment with 0, 0.01, 0.03, 0.1, 0.3, 1, or 3 uM of compounds using the following ELISA kits according to the manufacturer's instructions: Human IL-2 ELISA (BioLegend Cat #431804), Human IL-6 ELISA (BioLegend Cat #430504), and Human IL-10 ELISA (BioLegend Cat #430604).

[3] = system: IL-6 and IL-10 secretion in OCI-Ly3 cells; assay: IL-6 and IL-10 secretion by OCI-Ly3 cells (ELISA); type: cell-based, human
Method: as §1

[4] = system: IL-6 and IL-10 secretion in TMD8 cells; assay: IL-6 and IL-10 secretion by TMD8 cells (ELISA); type: cell-based, human
Method: as §1

## COc1ccc(CNS(=O)(=O)c2ccc(Cc3ccc(S(=O)(=O)NCc4ccc(OC)cc4)cc3)cc2)cc1 [M1i-124d1]
[1]
  Phosphorylation of ERK (phospho-ERK/total ERK): Neither M1i-124 (F) or M1i-124d1 (G) inhibits
[2]
  IL-2 secretion: dose-dependent inhibition
[3]
  IL-6 secretion: inhibit IL-6 and IL-10 secretion in a concentration-dependent manner
  IL-10 secretion: inhibit IL-6 and IL-10 secretion in a concentration-dependent manner
[4]
  IL-6 secretion: inhibit IL-6 and IL-10 secretion in a concentration-dependent manner
  IL-10 secretion: inhibit IL-6 and IL-10 secretion in a concentration-dependent manner

— US20240124410A1, “SMALL MOLECULES AND THEIR USE AS MALT1 INHIBITORS” (University of Pittsburgh - Of the Commonwealth System of …, priority 2021, published 2024)
